Values of other authors as cited in patent US7563896B2, “Process of obtaining type II dehydroquinase enzyme inhibitors and precursors thereof” (Universidade de Santiago de Compostela, priority 2003, dated 2009).

What was measured:
EPSP synthase = settings: sixth enzyme of the shikimic acid pathway, read-out: inhibition constant

O=C(O)CNCP(=O)(O)O [Glyphosphate]
effectiveness against malaria (malaria): effective | Ki (EPSP synthase): ~1000 nM
